{"source": "paper PMC10287555", "about": "“Camonsertib in DNA damage response-deficient advanced solid tumors: phase 1 trial results” (Nature Medicine, 2023)", "format_in_all_cases": "in vivo, human", "key": {"[1]": {"test": "Plasma pharmacokinetics, cycle 1 day 1 (LC–MS/MS, non-compartmental analysis)", "settings": "for Cmax / Tmax / AUC(0-t) / AUC(0-inf) / half-life: human, plasma, oral; for Cmax: read-out: Cmax, geometric mean; for Tmax: read-out: Tmax, median; for AUC(0-inf): read-out: AUC0-INF, geometric mean", "procedure": "The plasma levels from cycle 1, day 1 of camonsertib were quantified using a validated liquid chromatography tandem–mass spectrometry (LC–MS/MS) method. […] All PK parameters were calculated using actual sampling times. Mean plasma concentration time profiles at given dose levels and regimens were plotted on semi-logarithmic plots using nominal times."}, "[2]": {"tested_on": "p-KAP1 Ser821", "test": "PD biomarker IHC in paired pre-/on-treatment tumor biopsies", "settings": "33 paired biopsies, doses >100 mg; P < 0.001, paired Wilcoxon test", "procedure": "(§1) Tumor biopsies were collected from patients at baseline and on cycle 2, day 10 between 8 h and 24 h after dosing. […] Thus, p-CHK1 was not assessed owing to limited feasibility. Unstained slides sectioned at 4 μm were labeled for gH2AX Ser139 (clone 20E3, 9718, Cell Signaling Technology, 1:1,000 dilution) and pKAP1 S824 (clone BL-246-7B5, ab243870, Abcam, 1:600 dilution) on a BOND RX autostainer (Leica Biosystems) with enzyme treatment (1:1,000) and BOND Polymer Refine Detection (Leica Biosystems) according to the manufacturer’s protocol. After staining, sections were dehydrated and film-coverslipped using a TissueTek Prisma and Coverslipper (Sakura Fintech). Retrospective ATM IHC was performed by a sponsor-approved central laboratory (anti-ATM clone Y170, ab32420, Abcam, 1:250 dilution). All slides were interpreted by a board-certified pathologist. ATM loss was defined as ≤5% of positive tumor cells."}, "[3]": {"tested_on": "γ-H2AX", "test": "PD biomarker IHC in paired pre-/on-treatment tumor biopsies", "settings": "33 paired biopsies, doses >100 mg; P = 0.003, paired Wilcoxon test", "procedure": "as §1"}, "[4]": {"settings": "60 mg, Tau 12 hr, cycle 1 day 1"}, "[5]": {"settings": "80 mg, Tau 12 hr, cycle 1 day 1"}, "[6]": {"settings": "80 mg, Tau 24 hr, cycle 1 day 1"}, "[7]": {"settings": "100 mg, Tau 24 hr, cycle 1 day 1"}, "[8]": {"settings": "120 mg, Tau 24 hr, cycle 1 day 1"}, "[9]": {"settings": "160 mg, Tau 24 hr, cycle 1 day 1"}, "[10]": {"settings": "200 mg, Tau 24 hr, cycle 1 day 1"}}, "note": "Like-named read-outs stand apart in the source and are kept apart here."}
{"smiles": "C[C@@H]1COCCN1c1cc([C@]2(O)C[C@H]3CC[C@@H](C2)O3)c2cnn(-c3cc[nH]n3)c2n1", "note": "[camonsertib]", "values": [{"measurement": "Cmax", "setting": "[1]; [4]", "value": 3.3, "unit": "µg/mL"}, {"measurement": "Tmax", "setting": "[1]; [4]", "value": 1.55, "unit": "h"}, {"measurement": "AUC(0-t)", "setting": "[1]; 80 mg, Tau 12 hr, cycle 1 day 1, read-out: AUC0-12, geometric mean", "value": 21.4, "unit": "µg·h/mL"}, {"measurement": "AUC(0-t)", "setting": "[1]; 80 mg, Tau 12 hr, cycle 1 day 1, read-out: AUC0-t, geometric mean", "value": 42.1, "unit": "µg·h/mL"}, {"measurement": "Cmax", "setting": "[1]; [5]", "value": 3, "unit": "µg/mL"}, {"measurement": "Tmax", "setting": "[1]; [5]", "value": 2.17, "unit": "h"}, {"measurement": "AUC(0-t)", "setting": "[1]; 80 mg, Tau 24 hr, cycle 1 day 1, read-out: AUC0-12, geometric mean", "value": 18.7, "unit": "µg·h/mL"}, {"measurement": "AUC(0-t)", "setting": "[1]; 80 mg, Tau 24 hr, cycle 1 day 1, read-out: AUC0-t, geometric mean", "value": 20.3, "unit": "µg·h/mL"}, {"measurement": "Cmax", "setting": "[1]; [6]", "value": 5.7, "unit": "µg/mL"}, {"measurement": "Tmax", "setting": "[1]; [6]", "value": 1, "unit": "h"}, {"measurement": "AUC(0-t)", "setting": "[1]; 100 mg, Tau 24 hr, cycle 1 day 1, read-out: AUC0-12, geometric mean", "value": 24.8, "unit": "µg·h/mL"}, {"measurement": "AUC(0-t)", "setting": "[1]; 100 mg, Tau 24 hr, cycle 1 day 1, read-out: AUC0-t, geometric mean", "value": 30.2, "unit": "µg·h/mL"}, {"measurement": "Cmax", "setting": "[1]; [7]", "value": 5.2, "unit": "µg/mL"}, {"measurement": "Tmax", "setting": "[1]; [7]", "value": 1.54, "unit": "h"}, {"measurement": "AUC(0-t)", "setting": "[1]; 120 mg, Tau 24 hr, cycle 1 day 1, read-out: AUC0-12, geometric mean", "value": 23.9, "unit": "µg·h/mL"}, {"measurement": "AUC(0-t)", "setting": "[1]; 120 mg, Tau 24 hr, cycle 1 day 1, read-out: AUC0-t, geometric mean", "value": 29.5, "unit": "µg·h/mL"}, {"measurement": "Cmax", "setting": "[1]; [8]", "value": 5.3, "unit": "µg/mL"}, {"measurement": "Tmax", "setting": "[1]; [8]", "value": 2.03, "unit": "h"}, {"measurement": "AUC(0-t)", "setting": "[1]; 160 mg, Tau 24 hr, cycle 1 day 1, read-out: AUC0-12, geometric mean", "value": 34.8, "unit": "µg·h/mL"}, {"measurement": "AUC(0-t)", "setting": "[1]; 160 mg, Tau 24 hr, cycle 1 day 1, read-out: AUC0-t, geometric mean", "value": 41, "unit": "µg·h/mL"}, {"measurement": "Cmax", "setting": "[1]; [9]", "value": 7.3, "unit": "µg/mL"}, {"measurement": "Tmax", "setting": "[1]; [9]", "value": 1.21, "unit": "h"}, {"measurement": "AUC(0-t)", "setting": "[1]; 200 mg, Tau 24 hr, cycle 1 day 1, read-out: AUC0-12, geometric mean", "value": 44.7, "unit": "µg·h/mL"}, {"measurement": "AUC(0-t)", "setting": "[1]; 200 mg, Tau 24 hr, cycle 1 day 1, read-out: AUC0-t, geometric mean", "value": 54.6, "unit": "µg·h/mL"}, {"measurement": "Cmax", "setting": "[1]; [10]", "value": 9.5, "unit": "µg/mL"}, {"measurement": "Tmax", "setting": "[1]; [10]", "value": 1, "unit": "h"}, {"measurement": "AUC(0-inf)", "setting": "[1]; Dose 5 mg, Tau 24 hr, cycle 1 day 1", "value": 2.3, "unit": "µg·h/mL"}, {"measurement": "half-life", "setting": "[1]; Dose 5 mg, Tau 24 hr, cycle 1 day 1, read-out: Half-life, geometric mean (converted)", "value": 5.87, "unit": "h"}, {"measurement": "AUC(0-inf)", "setting": "[1]; Dose 10 mg, Tau 24 hr, cycle 1 day 1", "value": 6.6, "unit": "µg·h/mL"}, {"measurement": "half-life", "setting": "[1]; Dose 10 mg, Tau 24 hr, cycle 1 day 1, read-out: Half-life, geometric mean (converted)", "value": 8.5, "unit": "h"}, {"measurement": "AUC(0-inf)", "setting": "[1]; Dose 20 mg, Tau 24 hr, cycle 1 day 1", "value": 3.1, "unit": "µg·h/mL"}, {"measurement": "half-life", "setting": "[1]; Dose 20 mg, Tau 24 hr, cycle 1 day 1, read-out: Half-life, geometric mean (converted)", "value": 4.18, "unit": "h"}, {"measurement": "AUC(0-inf)", "setting": "[1]; Dose 40 mg, Tau 12 hr, cycle 1 day 1", "value": 153, "unit": "µg·h/mL"}, {"measurement": "AUC(0-inf)", "setting": "[1]; Dose 60 mg, Tau 12 hr, cycle 1 day 1", "value": 66.1, "unit": "µg·h/mL"}, {"measurement": "AUC(0-inf)", "setting": "[1]; Dose 80 mg, Tau 24 hr, cycle 1 day 1", "value": 21, "unit": "µg·h/mL"}, {"measurement": "half-life", "setting": "[1]; Dose 80 mg, Tau 24 hr, cycle 1 day 1, read-out: Half-life, geometric mean (converted)", "value": 4.08, "unit": "h"}, {"measurement": "AUC(0-inf)", "setting": "[1]; Dose 100 mg, Tau 24 hr, cycle 1 day 1", "value": 32.3, "unit": "µg·h/mL"}, {"measurement": "half-life", "setting": "[1]; Dose 100 mg, Tau 24 hr, cycle 1 day 1, read-out: Half-life, geometric mean (converted)", "value": 5.67, "unit": "h"}, {"measurement": "AUC(0-inf)", "setting": "[1]; Dose 120 mg, Tau 24 hr, cycle 1 day 1", "value": 31.3, "unit": "µg·h/mL"}, {"measurement": "half-life", "setting": "[1]; Dose 120 mg, Tau 24 hr, cycle 1 day 1, read-out: Half-life, geometric mean (converted)", "value": 6.21, "unit": "h"}, {"measurement": "AUC(0-inf)", "setting": "[1]; Dose 160 mg, Tau 24 hr, cycle 1 day 1", "value": 45.9, "unit": "µg·h/mL"}, {"measurement": "half-life", "setting": "[1]; Dose 160 mg, Tau 24 hr, cycle 1 day 1, read-out: Half-life, geometric mean (converted)", "value": 5.97, "unit": "h"}, {"measurement": "AUC(0-inf)", "setting": "[1]; Dose 200 mg, Tau 24 hr, cycle 1 day 1", "value": 58.9, "unit": "µg·h/mL"}, {"measurement": "half-life", "setting": "[1]; Dose 200 mg, Tau 24 hr, cycle 1 day 1, read-out: Half-life, geometric mean (converted)", "value": 6.31, "unit": "h"}, {"measurement": "half-life", "setting": "[1]; across all QD dose levels, read-out: Median half-life (converted)", "value": 5.8, "unit": "h"}, {"measurement": "Doses at which plasma exposures achieved predicted efficacious exposures", "setting": "[1]; in vivo", "value": "> 100", "unit": "mg QD"}, {"measurement": "PK variability", "setting": "[1]; intra-patient and inter-patient", "value": "low intra-patient and inter-patient variability"}, {"measurement": "Change in p-KAP1, on-treatment vs pre-treatment biopsy", "setting": "[2]", "value": "statistically significant increases"}, {"measurement": "Change in γ-H2AX, on-treatment vs pre-treatment biopsy", "setting": "[3]", "value": "statistically significant increases"}]}
